Results on 28 molecules are retold here after patent publication US10329294B2, “Pyrazolopyrimidine inhibitors of IRAK4 activity” (MERCK SHARP & DOHME CORP., priority 2015, dated 2019).

The structures appear in SMILES notation. Counter-ions that a name gives are not always drawn.

What is called IC50 is the concentration at which inhibition is half-maximal.

Chain of IRAK4 (Q9NWZ3 whole entry): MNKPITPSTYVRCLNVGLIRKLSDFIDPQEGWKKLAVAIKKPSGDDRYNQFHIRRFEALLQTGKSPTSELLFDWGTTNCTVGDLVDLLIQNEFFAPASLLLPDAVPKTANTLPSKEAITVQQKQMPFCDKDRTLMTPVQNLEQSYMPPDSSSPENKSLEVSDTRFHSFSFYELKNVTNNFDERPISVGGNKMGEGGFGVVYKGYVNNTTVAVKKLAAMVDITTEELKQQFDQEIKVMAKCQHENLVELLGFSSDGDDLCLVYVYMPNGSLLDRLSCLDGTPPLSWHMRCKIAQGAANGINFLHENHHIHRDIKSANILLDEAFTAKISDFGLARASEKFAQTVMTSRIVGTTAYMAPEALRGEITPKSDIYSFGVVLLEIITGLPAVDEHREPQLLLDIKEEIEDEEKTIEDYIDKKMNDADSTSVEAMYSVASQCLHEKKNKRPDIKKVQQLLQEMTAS

This assay has as its target IRAK4 (Homo sapiens (Human), UniProt Q9NWZ3). Description: IRAK4 Kinase Assay. It is filed as biochemical. To be noted: IMAP fluorescence polarization, 0.5 nM GST tagged IRAK4, 100 μM ATP, 30 minutes at 25° C.; read-out: IRAK4 IC50. A general note: Polarisation of emitted light reports the rotation of a fluorescent probe.
On to `O=C(Nc1cn(CC(F)F)nc1C(F)(F)F)c1cnn2ccc(N[C@@H]3CCCC[C@@H]3O)nc12` [Example 63, N-[1-(2,2-difluoroethyl)-3-(trifluoromethyl)-1H-pyrazol-4-yl]-5-{[(1R,2S)-2-hydroxycyclohexyl]amino} pyrazolo[1,5-a]pyrimidine-3-carboxamide trifluoroacetate], for which the IC50 came to 0.038 µM.
Consider `O=C(Nc1cn(CC(F)F)nc1C(F)(F)F)c1cnn2ccc(N3CCNCC4(CC4)C3)nc12` [Example 64, 5-(5,8-diazaspiro[2.6]non-5-yl)-N-[1-(2,2-difluoroethyl)-3-(trifluoromethyl)-1H-pyrazol-4-yl]pyrazolo[1,5-a]pyrimidine-3-carboxamide trifluoroacetate], for which the IC50 came out at 0.018 µM.
With `O=C(Nc1cn(CC(F)F)nc1C(F)(F)F)c1cnn2ccc(N3CC4CCC3CN4)nc12` (stereo not shown) [Example 65, 5-(2,5-diazabicyclo[2.2.2]oct-2-yl)-N-[1-(2,2-difluoroethyl)-3-(trifluoromethyl)-1H-pyrazol-4-yl]pyrazolo[1,5-a]pyrimidine-3-carboxamide trifluoroacetate], the IC50 was 0.059 µM.
Consider `N[C@@H]1[C@H](Nc2ccn3ncc(C(=O)Nc4cn(CC(F)F)nc4C(F)(F)F)c3n2)CCCC1(F)F` [Example 66, 5-{[(1R,2R)-2-amino-3,3-difluorocyclohexyl]amino}-N-[1-(2,2-difluoroethyl)-3-(trifluoromethyl)-1H-pyrazol-4-yl]pyrazolo[1,5-a]pyrimidine-3-carboxamide trifluoroacetate], for which the IC50 was 0.244 µM.
`O=C(Nc1cn(C(F)F)nc1C(F)(F)F)c1cnn2ccc(N3CC4CCC3CN4)nc12` (stereo not shown) [Example 67, 5-(2,5-diazabicyclo[2.2.2]oct-2-yl)-N-[1-(difluoromethyl)-3-(trifluoromethyl)-1H-pyrazol-4-yl]pyrazolo[1,5-a]pyrimidine-3-carboxamide trifluoroacetate]: the IC50 came out at 0.074 µM.
For `O=C(Nc1cn(C(F)F)nc1C(F)(F)F)c1cnn2ccc(N3CCNCC4(CC4)C3)nc12` [Example 68, 5-(5,8-diazaspiro[2.6]non-5-yl)-N-[1-(difluoromethyl)-3-(trifluoromethyl)-1H-pyrazol-4-yl]pyrazolo[1,5-a]pyrimidine-3-carboxamide trifluoroacetate], the IC50 amounted to 0.032 µM.
With `N[C@@H]1[C@H](Nc2ccn3ncc(C(=O)Nc4cn(CC(F)(F)F)nc4C(F)(F)F)c3n2)CCCC1(F)F` [Example 69, 5-{[(1R,2R)-2-amino-3,3-difluorocyclohexyl]amino}-N-[1-(2,2,2-trifluoroethyl)-3-(trifluoromethyl)-1H-pyrazol-4-yl]pyrazolo[1,5-a]pyrimidine-3-carboxamide trifluoroacetate] the figure was 0.927 µM.
Regarding `O=C(Nc1cn(CC(F)(F)F)nc1C(F)(F)F)c1cnn2ccc(N3CCNCC4(CC4)C3)nc12` [Example 70, 5-(5,8-diazaspiro[2.6]non-5-yl)-N-[1-(2,2,2-trifluoroethyl)-3-(trifluoromethyl)-1H-pyrazol-4-yl]pyrazolo[1,5-a]pyrimidine-3-carboxamide trifluoroacetate], the IC50 was found to be 0.051 µM.
Take `N[C@@H]1[C@H](Nc2ccn3ncc(C(=O)Nc4cn(C(F)F)nc4C(F)(F)F)c3n2)CCCC1(F)F` [Example 71, 5-{[(1R,2R)-2-amino-3,3-difluorocyclohexyl]amino}-N-[1-(difluoromethyl)-3-(trifluoromethyl)-1H-pyrazol-4-yl]pyrazolo[1,5-a]pyrimidine-3-carboxamide trifluoroacetate]: the IC50 was found to be 0.328 µM.
Take `O=C(Nc1cn(C(F)F)nc1C(F)(F)F)c1cnn2ccc(N[C@@H]3CCCC[C@@H]3O)nc12` [Example 72, N-[1-(difluoromethyl)-3-(trifluoromethyl)-1H-pyrazol-4-yl]-5-{[(1R,2S)-2-hydroxycyclohexyl]amino} pyrazolo[1,5-a]pyrimidine-3-carboxamide trifluoroacetate]: the IC50 is 0.141 µM.
For `Cn1cc(NC(=O)c2cnn3ccc(N4CC5CCC4CCN5)nc23)c(C(F)(F)F)n1` (stereo not shown) [Example 73, 5-(2,6-diazabicyclo[3.2.2]non-6-yl)-N-[1-methyl-3-(trifluoromethyl)-1H-pyrazol-4-yl]pyrazolo[1,5-a]pyrimidine-3-carboxamide trifluoroacetate], the half-maximal inhibitory concentration (IC50) is 0.144 µM.
On to `Cn1cc(NC(=O)c2cnn3ccc(N4CC5CC4CCN5)nc23)c(C(F)(F)F)n1` (stereo not shown) [Example 74, 5-(2,6-diazabicyclo[3.2.1]oct-6-yl)-N-[1-methyl-3-(trifluoromethyl)-1H-pyrazol-4-yl]pyrazolo[1,5-a]pyrimidine-3-carboxamide trifluoroacetate], for which the IC50 stood at 0.041 µM.
With `N[C@H]1CCCC[C@H]1Nc1ccn2ncc(C(=O)Nc3cscc3Br)c2n1` [Example 76, 5-{[(1R,2S)-2-aminocyclohexyl]amino}-N-(4-bromothiophen-3-yl)pyrazolo[1,5-a]pyrimidine-3-carboxamide trifluoroacetate], the IC50 is 0.0009 µM.
In the case of `CC1CN(c2ccn3ncc(C(=O)Nc4cn(C)nc4C(F)(F)F)c3n2)C(C)CN1` (stereo not shown) [Example 79, 5-(2,5-dimethylpiperazin-1-yl)-N-[1-methyl-3-(trifluoromethyl)-1H-pyrazol-4-yl]pyrazolo[1,5-a]pyrimidine-3-carboxamide trifluoroacetate], the IC50 turned out to be 0.062 µM.
With `Cn1cc(NC(=O)c2cnn3ccc(N4CC5CNC(COC5)C4)nc23)c(C(F)(F)F)n1` (stereo not shown) [Example 80, N-[1-methyl-3-(trifluoromethyl)-1H-pyrazol-4-yl]-5-(3-oxa-7,9-diazabicyclo[3.3.2]dec-7-yl)pyrazolo[1,5-a]pyrimidine-3-carboxamide trifluoroacetate] the figure was 0.029 µM; with `Cn1cc(NC(=O)c2cnn3ccc(N4CC5CCC(C4)N5)nc23)c(C(F)(F)F)n1` [Example 81, 5-(3,8-diazabicyclo[3.2.1]oct-3-yl)-N-[1-methyl-3-(trifluoromethyl)-1H-pyrazol-4-yl]pyrazolo[1,5-a]pyrimidine-3-carboxamide trifluoroacetate], 0.009 µM.
Regarding `Cn1cc(NC(=O)c2cnn3ccc(N4CC5CNCC4C5)nc23)c(C(F)(F)F)n1` (stereo not shown) [Example 82, 5-(3,6-diazabicyclo[3.2.1]oct-6-yl)-N-[1-methyl-3-(trifluoromethyl)-1H-pyrazol-4-yl]pyrazolo[1,5-a]pyrimidine-3-carboxamide trifluoroacetate], the IC50 came to 0.114 µM.
Consider `Cn1cc(NC(=O)c2cnn3ccc(N4CCNCC5(CC5)C4)nc23)c(C(F)F)n1` [Example 86, 5-(5,8-diazaspiro[2.6]non-5-yl)-N-[3-(difluoromethyl)-1-methyl-1H-pyrazol-4-yl]pyrazolo[1,5-a]pyrimidine-3-carboxamide trifluoroacetate], for which the IC50 came to 0.002 µM.
As for `Cn1cc(NC(=O)c2cnn3ccc(N4CCCNCC4)nc23)c(C(F)F)n1` [Example 87, 5-(1,4-diazepan-1-yl)-N-[3-(difluoromethyl)-1-methyl-1H-pyrazol-4-yl]pyrazolo[1,5-a]pyrimidine-3-carboxamide trifluoroacetate], the IC50 turned out to be 0.004 µM.
On to `Cn1cc(NC(=O)c2cnn3ccc(N4CCC[C@@H](N)C4)nc23)c(C(F)F)n1` [Example 90, 5-[(3R)-3-aminopiperidin-1-yl]-N-[3-(difluoromethyl)-1-methyl-1H-pyrazol-4-yl]pyrazolo[1,5-a]pyrimidine-3-carboxamide trifluoroacetate], for which the IC50 was 0.0005 µM.
Consider `Cn1cc(NC(=O)c2cnn3ccc(N[C@@H]4CCCNC4)nc23)c(C(F)F)n1` [Example 91, N-[3-(difluoromethyl)-1-methyl-1H-pyrazol-4-yl]-5-[(3R)-piperidin-3-ylamino]pyrazolo[1,5-a]pyrimidine-3-carboxamide trifluoroacetate], for which the IC50 amounted to 0.0005 µM.
With `Cn1cc(NC(=O)c2cnn3ccc(N4[C@@H]5CC[C@H]4[C@@H]4CC[C@H]5N4)nc23)c(C(F)(F)F)n1` [Example 92, 5-[9,10-diazatricyclo[4.2.1.1~2,5~]dec-9-yl]-N-]1-methyl-3-(trifluoromethyl)-1H-pyrazol-4-yl]pyrazolo[1,5-a]pyrimidine-3-carboxamide trifluoroacetate] the figure was 0.115 µM; with `Cn1cc(NC(=O)c2cnn3ccc(N4CCNCCC45CC5)nc23)c(C(F)(F)F)n1` [Example 95, 5-(4,7-diazaspiro[2.6]non-4-yl)-N-[1-methyl-3-(trifluoromethyl)-1H-pyrazol-4-yl]pyrazolo[1,5-a]pyrimidine-3-carboxamide trifluoroacetate], 0.789 µM.
Turning to `Cn1cc(NC(=O)c2cnn3ccc(N4CC5CCC4CN5)nc23)c(C(F)F)n1` (stereo not shown) [Example 96, 5-(2,5-diazabicyclo[2.2.2]oct-2-yl)-N-[3-(difluoromethyl)-1-methyl-1H-pyrazol-4-yl]pyrazolo[1,5-a]pyrimidine-3-carboxamide trifluoroacetate], the IC50 was determined as 0.002 µM.
For `Cn1cc(NC(=O)c2cnn3ccc(N4CCCNCC45CC5)nc23)c(C(F)(F)F)n1` [Example 98, 5-(4,8-diazaspiro[2.6]non-4-yl)-N-[1-methyl-3-(trifluoromethyl)-1H-pyrazol-4-yl]pyrazolo[1,5-a]pyrimidine-3-carboxamide trifluoroacetate], the IC50 worked out at 0.033 µM.
Regarding `Cn1cc(NC(=O)c2cnn3ccc(NC4CCCCNC4)nc23)c(C(F)F)n1` (stereo not shown) [Example 99, 5-(azepan-3-ylamino)-N-[3-(difluoromethyl)-1-methyl-1H-pyrazol-4-yl]pyrazolo[1,5-a]pyrimidine-3-carboxamide], the IC50 was 0.003 µM.
As to `O=C(Nc1ccccc1I)c1cnn2ccc(N3CCNCC4(CC4)C3)nc12` [Example 100, 5-(5,8-diazaspiro[2.6]non-5-yl)-N-(2-iodophenyl)pyrazolo[1,5-a]pyrimidine-3-carboxamide trifluoroacetate], the IC50 came to 8.08 µM.
As to `O=C(Nc1ccccc1I)c1cnn2ccc(N[C@@H]3CCCC[C@@H]3O)nc12` [Example 101, 5-{[(1R,2S)-2-hydroxycyclohexyl]amino}-N-(2-iodophenyl)pyrazolo[1,5-a]pyrimidine-3-carboxamide], the IC50 is 7.65 µM.
